ChEMBL document CHEMBL3596090, “Discovery of novel pyrazole-containing benzamides as potent RORγ inverse agonists” (Bioorg Med Chem Lett, 2015)
In brackets after ≈: the same amount, converted by molar mass.

Tests used:
[1] = molecular target: T1, Nuclear receptor ROR-gamma (Homo sapiens, UniProt P51449); experiment: Inverse agonist activity at RORgamma (unknown origin) transfected in HEK293T cells after 16 to 20 hrs by GAL4 luciferase reporter gene assay; type: functional, cell-based, HEK-293T
T1 sequence (P51449 whole entry): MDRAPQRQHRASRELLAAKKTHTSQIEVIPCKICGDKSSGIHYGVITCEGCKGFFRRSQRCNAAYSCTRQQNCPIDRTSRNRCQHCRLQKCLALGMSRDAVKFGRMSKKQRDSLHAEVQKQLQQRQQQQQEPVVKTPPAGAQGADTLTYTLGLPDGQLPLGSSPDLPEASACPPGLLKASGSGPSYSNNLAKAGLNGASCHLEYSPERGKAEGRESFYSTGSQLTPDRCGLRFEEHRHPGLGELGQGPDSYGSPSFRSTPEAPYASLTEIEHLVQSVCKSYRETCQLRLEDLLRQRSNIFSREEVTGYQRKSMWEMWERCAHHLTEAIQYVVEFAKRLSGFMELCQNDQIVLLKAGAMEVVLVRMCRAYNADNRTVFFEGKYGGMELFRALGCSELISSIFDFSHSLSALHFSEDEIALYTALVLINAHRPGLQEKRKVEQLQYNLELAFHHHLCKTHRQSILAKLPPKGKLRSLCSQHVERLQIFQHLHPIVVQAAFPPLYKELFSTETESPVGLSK

[2] = molecular target: T2, Nuclear receptor ROR-gamma (Mus musculus, UniProt P51450); experiment: Inverse agonist activity at RORgamma in C57BL/6 mouse splenocytes assessed as reduction of IL-17 production after 2 days by ELISA; type: cell-based
T2 sequence (P51450 whole entry): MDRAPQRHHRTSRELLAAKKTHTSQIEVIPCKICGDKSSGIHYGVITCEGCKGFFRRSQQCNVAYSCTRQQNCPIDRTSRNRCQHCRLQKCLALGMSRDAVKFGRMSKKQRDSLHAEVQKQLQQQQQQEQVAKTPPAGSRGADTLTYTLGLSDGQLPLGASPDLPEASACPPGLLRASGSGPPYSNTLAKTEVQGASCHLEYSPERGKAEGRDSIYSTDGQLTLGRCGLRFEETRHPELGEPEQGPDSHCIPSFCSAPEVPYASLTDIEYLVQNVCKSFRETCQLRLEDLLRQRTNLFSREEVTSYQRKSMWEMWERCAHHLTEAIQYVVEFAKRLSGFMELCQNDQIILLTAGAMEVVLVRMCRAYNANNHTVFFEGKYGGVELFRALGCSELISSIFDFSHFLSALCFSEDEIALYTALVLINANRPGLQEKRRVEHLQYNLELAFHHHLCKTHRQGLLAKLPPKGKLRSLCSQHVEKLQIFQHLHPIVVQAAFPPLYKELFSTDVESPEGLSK

[3] = Percentage unbound in human plasma; type: ADME, cell-free
[4] = Percentage unbound in rat plasma; type: ADME, cell-free
[5] = molecular target: T3, Nuclear receptor ROR-alpha (Homo sapiens, UniProt P35398); experiment: Inverse agonist activity at RORalpha (unknown origin)
T3 sequence (P35398 whole entry): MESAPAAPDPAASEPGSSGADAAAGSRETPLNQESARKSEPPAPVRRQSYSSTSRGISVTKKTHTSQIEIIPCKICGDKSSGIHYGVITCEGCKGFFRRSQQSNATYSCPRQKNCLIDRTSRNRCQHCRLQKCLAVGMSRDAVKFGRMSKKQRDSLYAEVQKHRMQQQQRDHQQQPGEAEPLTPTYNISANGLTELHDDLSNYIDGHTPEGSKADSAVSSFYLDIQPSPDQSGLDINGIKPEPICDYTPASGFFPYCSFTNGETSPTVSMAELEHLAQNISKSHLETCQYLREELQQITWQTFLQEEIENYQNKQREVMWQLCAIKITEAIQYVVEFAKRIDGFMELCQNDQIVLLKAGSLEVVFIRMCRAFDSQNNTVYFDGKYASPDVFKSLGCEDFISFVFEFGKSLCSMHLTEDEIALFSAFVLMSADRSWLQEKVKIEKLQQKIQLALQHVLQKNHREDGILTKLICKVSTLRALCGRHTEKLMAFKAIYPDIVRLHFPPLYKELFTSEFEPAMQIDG

[6] = molecular target: T4, Nuclear receptor ROR-beta (Homo sapiens, UniProt Q92753); experiment: Inverse agonist activity at RORbeta (unknown origin)
T4 sequence (Q92753 whole entry): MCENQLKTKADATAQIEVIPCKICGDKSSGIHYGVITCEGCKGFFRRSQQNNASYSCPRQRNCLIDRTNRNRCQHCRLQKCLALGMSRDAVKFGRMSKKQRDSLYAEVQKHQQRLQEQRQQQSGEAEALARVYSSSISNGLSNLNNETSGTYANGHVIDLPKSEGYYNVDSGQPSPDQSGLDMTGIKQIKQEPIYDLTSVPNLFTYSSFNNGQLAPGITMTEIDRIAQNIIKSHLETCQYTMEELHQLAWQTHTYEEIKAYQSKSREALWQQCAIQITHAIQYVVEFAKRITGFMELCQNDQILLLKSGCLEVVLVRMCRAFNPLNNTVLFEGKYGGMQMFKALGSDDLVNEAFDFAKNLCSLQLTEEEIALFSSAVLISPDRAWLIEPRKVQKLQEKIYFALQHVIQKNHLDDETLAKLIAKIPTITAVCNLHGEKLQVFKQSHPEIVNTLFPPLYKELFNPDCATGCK

[7] = Kinetic aqueous solubility of the compound; type: physicochemical; details: buffer; read-out: Kinetic_solubility
[8] = molecular target: T5, Nuclear receptor subfamily 1 group I member 2 (Homo sapiens, UniProt O75469); experiment: Activation of PXR (unknown origin)
T5 sequence (O75469 whole entry): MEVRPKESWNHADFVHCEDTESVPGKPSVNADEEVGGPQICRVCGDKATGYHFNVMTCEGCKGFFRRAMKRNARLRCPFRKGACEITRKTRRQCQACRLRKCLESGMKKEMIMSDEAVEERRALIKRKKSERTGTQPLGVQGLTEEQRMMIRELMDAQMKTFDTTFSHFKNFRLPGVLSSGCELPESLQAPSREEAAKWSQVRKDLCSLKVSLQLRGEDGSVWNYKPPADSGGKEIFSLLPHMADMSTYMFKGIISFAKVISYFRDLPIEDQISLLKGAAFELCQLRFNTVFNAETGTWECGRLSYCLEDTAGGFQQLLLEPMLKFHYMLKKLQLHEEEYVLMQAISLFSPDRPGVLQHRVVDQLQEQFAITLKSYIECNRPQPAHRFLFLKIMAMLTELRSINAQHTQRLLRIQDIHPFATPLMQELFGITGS

SMILES	EC50 [1]	EC50 [2]	fraction unbound [3]	fraction unbound [4]	EC50 [5]	EC50 [6]	solubility kinetic [7]	EC50 [8]
[2H]C([2H])([2H])N(C(=O)c1c(F)cccc1Cl)c1ccc(-c2cc(NC(=O)OC3(C)CC3)nn2C(C)C)cc1N1CC2CC2C1 (stereo not drawn)	150 nM	–	–	–	–	–	–	–
[2H]C([2H])([2H])N(C(=O)c1c(F)cccc1Cl)c1ccc(-c2cc(NC(=O)N3CC4(COC4)C3)nn2C(C)C)cc1N1CC2CC2C1 (stereo not drawn)	–	148 nM	–	–	–	–	–	–
[2H]C([2H])([2H])N(C(=O)c1c(F)cccc1Cl)c1ccc(-c2cc(C(N)=O)nn2C(C)C)cc1OCC(F)(F)F	–	2000 nM	0.059	0.031	–	–	32 µg/mL (≈ 62 µM)	–
[2H]C([2H])([2H])N(C(=O)c1c(F)cccc1Cl)c1ccc(-c2cc(NC(=O)CC)nn2C(C)C)cc1N1CC2CC2C1 (stereo not drawn)	–	33 nM	–	–	–	–	–	–
[2H]C([2H])([2H])N(C(=O)c1c(F)cccc1Cl)c1ccc(-c2cc(NC(C)=O)nn2C2CCC2)cc1N1CC2CC2C1 (stereo not drawn)	–	199 nM	0.003	0.0004	–	–	0.5 µg/mL (≈ 0.952 µM)	–
[2H]C([2H])([2H])N(C(=O)c1c(F)cccc1Cl)c1ccc(-c2cc(NC(=O)[C@H]3C[C@@H](O)C3)nn2C(C)C)cc1N1CC2CC2C1 (stereo partly drawn)	–	134 nM	–	–	–	–	–	–
[2H]C([2H])([2H])N(C(=O)c1c(F)cccc1Cl)c1ccc(-c2cc(NC(C)=O)nn2C2CCCC2)cc1N1CC2CC2C1 (stereo not drawn)	–	60 nM	0.002	< 0.0005	1300 nM	1300 nM	0.1 µg/mL (≈ 0.186 µM)	500 nM
[2H]C([2H])([2H])N(C(=O)c1c(F)cccc1Cl)c1ccc(-c2cc(NC(=O)C(C)C)nn2C(C)C)cc1N1CC2CC2C1 (stereo not drawn)	15 nM	128 nM	–	–	–	–	–	–
[2H]C([2H])([2H])N(C(=O)c1c(F)cccc1Cl)c1ccc(-c2cc(NC(=O)NC)nn2C(C)C)cc1N1CC2CC2C1 (stereo not drawn)	–	354 nM	–	–	–	–	–	–
[2H]C([2H])([2H])N(C(=O)c1c(C)cccc1F)c1ccc(-c2cc(NC(C)=O)nn2C(C)C)cc1N1CC2CC2C1 (stereo not drawn)	–	355 nM	0.011	0.002	2000 nM	1500 nM	17 µg/mL (≈ 34.5 µM)	> 10000 nM
[2H]C([2H])([2H])N(C(=O)c1c(F)cccc1Cl)c1ccc(-c2cc(NC(C)=O)nn2C(C)C2CC2)cc1N1CC2CC2C1 (stereo not drawn)	–	–	–	–	9300 nM	1300 nM	0.5 µg/mL (≈ 0.928 µM)	900 nM
[2H]C([2H])([2H])N(C(=O)c1c(Cl)cccc1Cl)c1ccc(-c2cc(NC(C)=O)nn2C(C)C)cc1N1CC2CC2C1 (stereo not drawn)	–	73 nM	0.004	0.001	1500 nM	600 nM	0.8 µg/mL (≈ 1.51 µM)	500 nM
[2H]C([2H])([2H])N(C(=O)c1c(F)cccc1Cl)c1ccc(-c2cc(NC(=O)NC(CO)CO)nn2C(C)C)cc1N1CC2CC2C1 (stereo not drawn)	71 nM	–	–	–	–	–	–	–
[2H]C([2H])([2H])N(C(=O)c1c(F)cccc1Cl)c1ccc(-c2cnn(C)c2C(C)C)cc1OCC(F)(F)F	–	818 nM	0.009	0.006	–	–	< 0.1 µg/mL	–
[2H]C([2H])([2H])N(C(=O)c1c(F)cccc1Cl)c1ccc(-c2cc(NC(C)=O)nn2C(C)C)cc1OCC(C)C	–	–	0.003	0.002	–	–	–	–

The next lines start with the values.

EC50 [1]	EC50 [2]	fraction unbound [3]	fraction unbound [4]	EC50 [5]	EC50 [6]	solubility kinetic [7]	EC50 [8]	SMILES
–	110 nM	0.009	0.002	1900 nM	1700 nM	–	–	CC(=O)Nc1cc(-c2ccc(N(C)C(=O)c3c(F)cccc3Cl)c(N3CC4CC4C3)c2)n(C(C)C)n1 (stereo not drawn)
–	–	–	–	–	–	27 µg/mL (≈ 50.9 µM)	–	[2H]C([2H])([2H])N(C(=O)c1c(F)cccc1Cl)c1ccc(-c2cc(NC(C)=O)nn2C(C)C)cc1OCC(F)(F)F
–	–	0.003	0.002	2200 nM	800 nM	0.3 µg/mL (≈ 0.566 µM)	400 nM	CC(=O)Nc1nc(C(C)C)c(-c2cnc(N(C)C(=O)c3c(F)cccc3Cl)c(N3CCCCC3)c2)s1
–	3110 nM	–	–	1200 nM	900 nM	–	> 10000 nM	[2H]C([2H])([2H])N(C(=O)c1c(F)cccc1Cl)c1ccc(-c2cc(NC(C)=O)nn2C(C)C)cc1OCC1CCC1
–	–	0.017	0.009	1400 nM	1000 nM	12 µg/mL (≈ 24 µM)	800 nM	[2H]C([2H])([2H])N(C(=O)c1c(F)cccc1Cl)c1ccc(-c2cc(NC(C)=O)nn2C(C)C)cc1N1CCCC1
–	88 nM	–	–	–	–	–	–	[2H]C([2H])([2H])N(C(=O)c1c(F)cccc1Cl)c1ccc(-c2cc(NC(=O)C3CC3)nn2C(C)C)cc1N1CC2CC2C1 (stereo not drawn)
–	120 nM	–	–	–	–	–	–	[2H]C([2H])([2H])N(C(=O)c1c(F)cccc1Cl)c1ccc(-c2cc(NC(=O)CO)nn2C(C)C)cc1N1CC2CC2C1 (stereo not drawn)
–	–	–	–	–	–	0.8 µg/mL (≈ 1.48 µM)	–	[2H]C([2H])([2H])N(C(=O)c1c(F)cccc1Cl)c1ccc(-c2cc(NC(C)=O)nn2CC(C)(C)C)cc1N1CC2CC2C1 (stereo not drawn)
–	–	0.056	0.022	> 10000 nM	6200 nM	48 µg/mL (≈ 93.4 µM)	1300 nM	[2H]C([2H])([2H])N(C(=O)c1c(F)cccc1Cl)c1ncc(-c2cc(NC(C)=O)nn2C(C)C)cc1N1CC2CC2C1 (stereo not drawn)
–	201 nM	0.005	0.002	1800 nM	1800 nM	10.1 µg/mL (≈ 19.2 µM)	8800 nM	[2H]C([2H])([2H])N(C(=O)c1c(F)cccc1Cl)c1ccc(-c2cc(NC(C)=O)nn2CC2CC2)cc1N1CC2CC2C1 (stereo not drawn)
–	11 nM	0.004	0.001	1100 nM	800 nM	1.3 µg/mL (≈ 2.52 µM)	> 10000 nM	[2H]C([2H])([2H])N(C(=O)c1c(F)cccc1Cl)c1ccc(-c2cc(NC(C)=O)nn2C(C)C)cc1N1CCCCC1
–	–	0.004	0.004	2100 nM	1100 nM	–	> 10000 nM	[2H]C([2H])([2H])N(C(=O)c1c(F)cccc1Cl)c1ccc(-c2cc(NC(C)=O)nn2C(C)C)cc1-c1ccccc1
–	134 nM	–	–	–	–	–	–	[2H]C([2H])([2H])N(C(=O)c1c(F)cccc1Cl)c1ccc(-c2cc(NC(=O)[C@H]3C[C@H](O)C3)nn2C(C)C)cc1N1CC2CC2C1 (stereo partly drawn)
